This assay concerns mice. As to the kind of experiment: Analgesic Effect [mice, acetic acid-writhing method]. Type of assay: in vivo. The note with it: Mus musculus, po, P.O. (per os), 95% C.L. in parentheses. The source says: The analgesic effects of some representative compounds (I) are set forth below in Table I.
[mice, acetic acid-writhing method]
A general note: In writhing tests, fewer writhes than in controls are read as antinociception.

One may read the ED50 as the dose that gives a 50% effect, or the effect in half of the subjects. As for `CSc1nnc2n1C=Cc1ccccc1C2` [(I')Z = SCH3, 3-methylthio-11H-s-triazolo[3,4-b][3]benzazepine], the 50% effective dose (ED50) was found to be 10.5 mg/kg.

`C[S+]([O-])c1nnc2n1C=Cc1ccccc1C2` (centres unmarked) [(I')Z = SOCH3, 3-methylsulfinyl-11H-s-triazolo[3,4-b][3]benzazepine]: the ED50 is 10.3 mg/kg.
